Reference: ChEMBL document CHEMBL3272113, “Inhibitors of the luteinizing hormone-releasing hormone based upon modifications in the 2, 3, and 6 positions” (J Med Chem, 1976)
Square brackets hold non-standard residues; d marks the D form. Peptide text beside a SMILES is read from it. pGlu = O=C1CC[C@@H](C(=O)O)N1

Tests used:
[1] = biological target: Gonadotropin-releasing hormone receptor (Rattus norvegicus) (UniProt P30969); test: Antagonist activity at LH-RH receptor in rat pituitary gland assessed as inhibition of LH-RH-induced luteinizing hormone release
[2] = biological target: Gonadotropin-releasing hormone receptor (Rattus norvegicus) (UniProt P30969); test: Antagonist activity at LH-RH receptor in rat pituitary gland assessed as inhibition of LH-RH-induced FSH release
Rattus norvegicus [3] = test: Induction of FSH release in immature rat administered as infusion relative to LH-RH; format: functional
Rattus norvegicus [4] = test: Induction of LH release in immature rat administered as infusion relative to LH-RH; format: functional
[5] = tested on: Gonadotropin-releasing hormone receptor; test: Agonist activity at LH-RH receptor (unknown origin) relative to LH-RH
[6] = Retardation factor of the compound using CHCl3-MeOH-concentrated NH4OH as solvent system by thin layer chromatography; format: physicochemical
[7] = biological target: Gonadotropin-releasing hormone receptor (Rattus norvegicus) (UniProt P30969); test: Agonist activity at LH-RH receptor in rat pituitary gland assessed as change in FSH secretion at 100000 ng/ml
[8] = Retardation factor of the compound using EtOH-H2O at ratio of 7:3 as solvent system by thin layer chromatography; format: physicochemical
[9] = Retardation factor of the compound using 2-propanol-1N AcOH at ratio of 2:1 as solvent system by thin layer chromatography; format: physicochemical
[10] = Retardation factor of the compound using EtOAc-pyridine-AcOH-H2O at ratio of 5:5:1:3 as solvent system by thin layer chromatography; format: physicochemical
[11] = biological target: Gonadotropin-releasing hormone receptor (Rattus norvegicus) (UniProt P30969); test: Antagonist activity at LH-RH receptor in rat pituitary gland assessed as inhibition of LH-RH-induced luteinizing hormone release by measuring change in LH level in medium at 100000 ng/ml
[12] = biological target: Gonadotropin-releasing hormone receptor (Rattus norvegicus) (UniProt P30969); test: Agonist activity at LH-RH receptor in rat pituitary gland assessed as change in luteinizing hormone secretion at 100000 ng/ml
[13] = Retardation factor of the compound using 1-BuOH-AcOH-EtOAc-H2O at ratio of 1:1:1:1 as solvent system by thin layer chromatography; format: physicochemical
[14] = biological target: Gonadotropin-releasing hormone receptor (Rattus norvegicus) (UniProt P30969); test: Antagonist activity at LH-RH receptor in rat pituitary gland assessed as inhibition of LH-RH-induced luteinizing hormone release by measuring change in LH level in medium at 10000 ng/ml
[15] = biological target: Gonadotropin-releasing hormone receptor (Rattus norvegicus) (UniProt P30969); test: Antagonist activity at LH-RH receptor in rat pituitary gland assessed as inhibition of LH-RH-induced FSH release by measuring change in FSH level in medium at 100000 ng/ml
[16] = biological target: Gonadotropin-releasing hormone receptor (Rattus norvegicus) (UniProt P30969); test: Antagonist activity at LH-RH receptor in rat pituitary gland assessed as inhibition of LH-RH-induced FSH release by measuring change in FSH level in medium at 10000 ng/ml
[17] = biological target: Gonadotropin-releasing hormone receptor (Rattus norvegicus) (UniProt P30969); test: Antagonist activity at LH-RH receptor in rat pituitary gland assessed as inhibition of LH-RH-induced FSH release by measuring change in FSH level in medium at 1000 ng/ml
[18] = Retardation factor of the compound using 1-BuOH-pyridine-AcOH-H2O at ratio of 30:20:6:24 as solvent system by thin layer chromatography; format: physicochemical
[19] = biological target: Gonadotropin-releasing hormone receptor (Rattus norvegicus) (UniProt P30969); test: Antagonist activity at LH-RH receptor in rat pituitary gland assessed as inhibition of LH-RH-induced luteinizing hormone release by measuring change in LH level in medium at 1000 ng/ml

Gonadotropin-releasing hormone receptor (Rattus norvegicus), sequence (P30969 whole entry, looked up, the tested form may be a part): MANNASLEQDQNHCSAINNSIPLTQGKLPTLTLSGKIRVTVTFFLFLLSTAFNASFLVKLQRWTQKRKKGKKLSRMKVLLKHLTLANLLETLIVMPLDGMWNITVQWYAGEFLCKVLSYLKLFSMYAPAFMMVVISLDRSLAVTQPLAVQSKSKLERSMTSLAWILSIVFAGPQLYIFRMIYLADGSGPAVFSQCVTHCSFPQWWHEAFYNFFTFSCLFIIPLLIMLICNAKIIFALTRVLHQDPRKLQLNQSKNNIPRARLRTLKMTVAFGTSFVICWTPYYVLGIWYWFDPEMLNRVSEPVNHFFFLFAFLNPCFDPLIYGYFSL

MED [1] [µg/mL]	MED [2] [µg/mL]	Activity [5] [%]	Rf [6]	Activity [7] [ng/mL]	Rf [8]	Rf [9]	Rf [10]	Activity [11] [ng/mL]	Activity [12] [ng/mL]	Rf [13]	Activity [14] [ng/mL]	Activity [15] [ng/mL]	Activity [16] [ng/mL]	Activity [17] [ng/mL]	Rf [18]	Activity [19] [ng/mL]	SMILES	Activity (Rattus norvegicus [3]) [%]	Activity (Rattus norvegicus [4]) [%]
100	100		0.58	-185	0.62	0.57	0.71	13	-37	0.66	150	-399	3770				CC(C)C[C@H](NC(=O)[C@@H]1CCC(=O)N1)C(=O)N[C@H](C(=O)N[C@@H](CO)C(=O)N[C@@H](Cc1ccc(O)cc1)C(=O)N[C@H](C)C(=O)N[C@@H](CC(C)C)C(=O)N[C@@H](CCCNC(=N)N)C(=O)N1CCC[C@H]1C(=O)NCC(N)=O)C(C)C		
10	10			1690	0.63	0.67	0.8		26	0.69	3		2700	9280	0.59	460	CC(C)C[C@H](NC(=O)[C@@H]1CCC(=O)N1)C(=O)N[C@@H](CC(C)C)C(=O)N[C@@H](CO)C(=O)N[C@@H](Cc1ccc(O)cc1)C(=O)N[C@H](C)C(=O)N[C@@H](CC(C)C)C(=O)N[C@@H](CCCNC(=N)N)C(=O)N1CCC[C@H]1C(=O)NCC(N)=O		
10	10		0.58	158	0.62	0.58	0.71		-9	0.66	28		1260	6170		246	CC(C)C[C@H](NC(=O)[C@@H](NC(=O)[C@@H]1CCC(=O)N1)C(C)C)C(=O)N[C@@H](CO)C(=O)N[C@@H](Cc1ccc(O)cc1)C(=O)N[C@H](C)C(=O)N[C@@H](CC(C)C)C(=O)N[C@@H](CCCNC(=N)N)C(=O)N1CCC[C@H]1C(=O)NCC(N)=O		
100	100		0.53	850	0.62	0.54	0.7	35	17	0.64	313	770	4810				CC(C)C[C@H](NC(=O)[C@@H](C)NC(=O)[C@H](Cc1ccc(O)cc1)NC(=O)[C@H](CO)NC(=O)[C@@H](NC(=O)[C@@H](NC(=O)[C@@H]1CCC(=O)N1)C(C)C)C(C)C)C(=O)N[C@@H](CCCNC(=N)N)C(=O)N1CCC[C@H]1C(=O)NCC(N)=O		

More lines, now with the values behind:

SMILES	MED [1] [µg/mL]	MED [2] [µg/mL]	Activity [5] [%]	Rf [6]	Activity [7] [ng/mL]	Rf [8]	Rf [9]	Rf [10]	Activity [11] [ng/mL]	Activity [12] [ng/mL]	Rf [13]	Activity [14] [ng/mL]	Activity [15] [ng/mL]	Activity [16] [ng/mL]	Activity [17] [ng/mL]	Rf [18]	Activity [19] [ng/mL]	Activity (Rattus norvegicus [3]) [%]	Activity (Rattus norvegicus [4]) [%]
CC(C)C[C@H](NC(=O)CNC(=O)[C@H](Cc1ccc(O)cc1)NC(=O)[C@H](CO)NC(=O)[C@H](Cc1c[nH]c2ccccc12)NC(=O)[C@@H]1CCC(=O)N1)C(=O)N[C@@H](CCCNC(=N)N)C(=O)N1CCC[C@H]1C(=O)NCC(N)=O ([pGlu]WSYGLRPG-NH2)	30	30																	
CCNC(=O)[C@@H]1CCCN1C(=O)[C@H](CCCNC(=N)N)NC(=O)[C@H](CC(C)C)NC(=O)[C@@H](C)NC(=O)[C@H](Cc1ccc(O)cc1)NC(=O)[C@H](CO)NC(=O)[C@H](Cc1c[nH]c2ccccc12)NC(=O)[C@H](Cc1cnc[nH]1)NC(=O)[C@@H]1CCC(=O)N1																		1200	1600
CC(C)C[C@H](NC(=O)[C@@H](C)NC(=O)[C@H](Cc1ccc(O)cc1)NC(=O)[C@H](CO)NC(=O)[C@H](Cc1c[nH]c2ccccc12)NC(=O)[C@H](Cc1cnc[nH]1)NC(=O)[C@@H]1CCC(=O)N1)C(=O)N[C@@H](CCCNC(=N)N)C(=O)N1CCC[C@H]1C(=O)NCC(N)=O			300																
CC(C)C[C@H](NC(=O)CNC(=O)[C@H](Cc1ccc(O)cc1)NC(=O)[C@H](CO)NC(=O)[C@H](CC(C)C)NC(=O)[C@H](CC(C)C)NC(=O)[C@@H]1CCC(=O)N1)C(=O)N[C@@H](CCCNC(=N)N)C(=O)N1CCC[C@H]1C(=O)NCC(N)=O ([pGlu]LLSYGLRPG-NH2)	100	100																	
